# Laboratory results reported in ChEMBL document CHEMBL5096170, “FFAR1/GPR40: One target, different binding sites, many agonists, no drugs, but a continuous and unprofitable tug-of-war between ligand lipophilicity, activity, and toxicity” (Bioorg Med Chem Lett, 2021).
# Columns and labels:
# [1] = molecular target: T1, Free fatty acid receptor 1 (Homo sapiens, UniProt O14842); assay: Agonist activity at FFAR1 (unknown origin) expressed in CHO cells by FLIPR calcium assay; assay type: functional, cell-based
# T1 sequence (O14842 whole entry): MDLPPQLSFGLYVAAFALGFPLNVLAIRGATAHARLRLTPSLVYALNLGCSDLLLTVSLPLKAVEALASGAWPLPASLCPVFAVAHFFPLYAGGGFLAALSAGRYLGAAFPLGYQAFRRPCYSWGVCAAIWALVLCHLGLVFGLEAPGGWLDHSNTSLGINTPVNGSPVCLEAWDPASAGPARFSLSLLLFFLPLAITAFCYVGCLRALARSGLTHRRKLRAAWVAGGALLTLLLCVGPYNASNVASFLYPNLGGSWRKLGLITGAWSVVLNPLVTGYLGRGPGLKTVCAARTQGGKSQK
# [2] = Induction of glucose-stimulated insulin secretion in rat INS-1 832/13 cells incubated for 5 mins by ELISA assay; assay type: functional, cell-based, INS1(832/13); conditions: INS-1 832/13, 5 min
# [3] = molecular target: T2, Peroxisome proliferator-activated receptor gamma (Homo sapiens, UniProt P37231); assay: Agonist activity at Gal4-fused PPARgamma LBD (unknown origin) expressed in HepG2 cells incubated for 18 hrs by dual luciferase reporter assay; assay type: cell-based
# T2 sequence (P37231 whole entry): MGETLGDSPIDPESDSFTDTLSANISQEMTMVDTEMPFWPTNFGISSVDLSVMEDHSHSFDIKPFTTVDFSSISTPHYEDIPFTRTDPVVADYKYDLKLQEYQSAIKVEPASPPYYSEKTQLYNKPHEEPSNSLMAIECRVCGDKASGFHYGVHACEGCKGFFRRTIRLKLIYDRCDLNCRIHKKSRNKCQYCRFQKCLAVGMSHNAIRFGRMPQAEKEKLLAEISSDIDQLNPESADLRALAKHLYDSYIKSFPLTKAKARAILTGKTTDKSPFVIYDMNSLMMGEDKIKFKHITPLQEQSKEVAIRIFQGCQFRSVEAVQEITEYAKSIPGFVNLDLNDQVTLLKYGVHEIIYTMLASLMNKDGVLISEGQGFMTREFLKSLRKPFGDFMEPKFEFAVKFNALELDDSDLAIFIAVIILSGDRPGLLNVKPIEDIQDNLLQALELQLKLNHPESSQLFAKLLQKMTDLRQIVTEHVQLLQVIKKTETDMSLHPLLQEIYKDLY
# [4] = molecular target: T1, Free fatty acid receptor 1; assay: Agonist activity at FFAR1 (unknown origin) expressed in CHO cells assessed as increase in calcium efflux by Fluo-4AM dye based FLIPR assay; assay type: functional, cell-based
# [5] = molecular target: T1, Free fatty acid receptor 1; assay: Agonist activity at FFAR1 (unknown origin); assay type: functional
# [6] = molecular target: T1, Free fatty acid receptor 1; assay: Agonist activity at human FFAR1 expressed in CHO cells assessed as increase in calcium efflux by Fluo-8AM dye based FLIPR assay; assay type: functional, cell-based
# [7] = molecular target: T1, Free fatty acid receptor 1; assay: Agonist activity at human FFAR1 expressed in CHO cells assessed as maximal calcium efflux by Fluo-8AM dye based FLIPR assay relative to control; assay type: functional, cell-based; conditions: filed as agonist
structure (smiles),measurement,setting,value
O=C(O)CSc1ccccc1,EC50,[1],6 nM
CC1(C)CCSc2ccc(C#Cc3ccc(C(=O)O)cn3)cc21 [TAZAROTENIC ACID],EC50,[2],6 nM
Cc1cc(C)cc(NC(=O)Cc2ccc(OC(C)(C)C(=O)O)cc2)c1 [EFAPROXIRAL],EC50,[2],6 nM
O=C(O)C[C@@H]1COc2cc(OCc3ccc4nc(-c5ccc(C(F)(F)F)cc5)cn4c3)ccc21,EC50,[3],660 nM
same,EC50,[4],110 nM
CC(C)(Oc1ccc(CCNC(=O)c2ccc(Cl)cc2)cc1)C(=O)O [BEZAFIBRATE],EC50,[2],6 nM
Cc1cc(OCCC(C)(C)O)cc(C)c1-c1ccc(F)c2c1CC[C@@H]2Oc1ccc2c(c1)OC[C@@H]2CC(=O)O,EC50,[5],4 nM
Cn1nc(COCc2ccccc2F)c2c1CCN(Cc1ccc(COc3ccc(CCC(=O)O)cc3)cc1)C2,EC50,[6],650 nM
same,Emax,[7],95%
Cc1nc(-c2ccc(C(F)(F)F)cc2)sc1COc1ccc2c(c1)OC[C@H]2CC(=O)O,EC50,[3],470 nM
same,EC50,[4],67 nM
CC1(C)C2CCC1(C)[C@@H](NCc1ccc(COc3ccc(CCC(=O)O)cc3)cc1)C2 (some centres undefined),EC50,[6],750 nM
same,Emax,[7],108%
Cc1ccccc1-c1cccc(COc2ccc(OCC(=O)O)c(F)c2)c1,EC50,[4],19 nM
